We go through eleven compounds from patent US7179627B2, “Cyclooxygenase variants and methods of use” (Brigham Young University, priority 2001, dated 2007).

By IC50 is commonly meant the concentration at which inhibition is half-maximal.

For data set [1] the following is noted: active breakdown product of dipyrone; cited from earlier work.
A further data set addresses T1, mouse COX-2 (Mus musculus, UniProt Q05769).
T1 construct: expressed in transfected cells; host or cells: Sf9 insect cells infected with recombinant baculovirus
T1 sequence (Q05769 18-604): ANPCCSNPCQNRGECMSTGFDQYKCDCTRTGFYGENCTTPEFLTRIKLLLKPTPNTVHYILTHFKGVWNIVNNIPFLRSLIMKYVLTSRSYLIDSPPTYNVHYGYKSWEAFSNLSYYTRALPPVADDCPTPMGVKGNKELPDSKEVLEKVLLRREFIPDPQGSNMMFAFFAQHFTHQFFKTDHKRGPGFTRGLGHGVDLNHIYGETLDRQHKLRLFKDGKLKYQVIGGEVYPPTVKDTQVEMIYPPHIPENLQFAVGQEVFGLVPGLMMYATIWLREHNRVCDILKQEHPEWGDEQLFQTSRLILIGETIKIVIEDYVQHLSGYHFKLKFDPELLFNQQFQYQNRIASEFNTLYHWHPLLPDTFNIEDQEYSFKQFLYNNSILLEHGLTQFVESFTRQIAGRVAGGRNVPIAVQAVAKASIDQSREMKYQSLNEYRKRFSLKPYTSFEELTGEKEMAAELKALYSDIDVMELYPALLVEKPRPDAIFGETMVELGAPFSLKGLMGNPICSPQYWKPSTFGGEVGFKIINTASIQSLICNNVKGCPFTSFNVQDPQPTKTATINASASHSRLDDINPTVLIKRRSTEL
In words: COX activity (PGE2 formation by RIA) in insect cells expressing COX-2, drug inhibition. It counts as cell-based. The procedure: (§1) Both COX-3 and PCOX-1a were cloned into the baculovirus expression vector pBlueBac 4.5/V5-His (Invitrogen). Sf9 cells (˜1×10^6) were infected with viral stocks at a multiplicity of infection (MOI) of 3 for expression of COX-3, PCOX-1a, mouse COX-1 and mouse COX-2.
(§2) Sf9 cells were infected with a high titer viral stock at a MOI of3 and cultured for 48 hr. Infected cells expressing COX-3 were aliquoted into tubes (˜1.5×10^6 cells) and centrifuged (1000×g, 5 min). The supernatant was discarded and the cell pellet resuspended in 100 μl serum-free media containing the drug to be tested and preincubated at room temperature for 30 minutes. […] Samples were then centrifuged and 100 μl of the supernatant was assayed for COX activity by RIA for PGE2. Assays were performed multiple times in triplicate. Inhibition curves were constructed and IC50 values were determined using Prism® 3.0 (GraphPad, San Diego).

In another data set the target is T2, mouse COX-1 (Mus musculus, UniProt P22437).
T2 construct: expressed in transfected cells; host or cells: Sf9 insect cells infected with recombinant baculovirus
T2 sequence (P22437 27-602): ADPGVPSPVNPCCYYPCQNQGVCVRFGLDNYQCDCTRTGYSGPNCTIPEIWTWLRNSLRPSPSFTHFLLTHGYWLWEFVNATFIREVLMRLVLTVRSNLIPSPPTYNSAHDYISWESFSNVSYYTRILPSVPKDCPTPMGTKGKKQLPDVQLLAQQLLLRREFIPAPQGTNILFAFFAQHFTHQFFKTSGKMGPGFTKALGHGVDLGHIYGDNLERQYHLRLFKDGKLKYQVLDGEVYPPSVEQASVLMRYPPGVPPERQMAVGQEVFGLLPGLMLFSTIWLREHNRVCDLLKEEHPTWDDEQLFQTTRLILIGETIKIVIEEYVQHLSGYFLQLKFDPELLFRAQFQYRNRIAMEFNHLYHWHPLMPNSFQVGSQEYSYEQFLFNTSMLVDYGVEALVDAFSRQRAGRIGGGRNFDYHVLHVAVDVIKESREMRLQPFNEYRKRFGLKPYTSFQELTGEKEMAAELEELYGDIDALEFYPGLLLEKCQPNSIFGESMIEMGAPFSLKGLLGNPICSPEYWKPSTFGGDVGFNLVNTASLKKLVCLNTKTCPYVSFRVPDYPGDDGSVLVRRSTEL
In words: COX activity (PGE2 formation by RIA) in insect cells expressing COX-1, drug inhibition. It counts as cell-based. The procedure:
as §1
Sf9 cells were infected with a high titer viral stock at a MOI of3 and cultured for 48 hr. Infected cells expressing COX-3 were aliquoted into tubes (˜1.5×10^6 cells) and centrifuged (1000×g, 5 min). The supernatant was discarded and the cell pellet resuspended in 100 μl serum-free media containing the drug to be tested and preincubated at room temperature for 30 minutes. Arachidonic acid (100 μl, final concentration 5 or 30 μM) was then added, mixed and incubated (37° C., 10 min). Samples were then centrifuged and 100 μl of the supernatant was assayed for COX activity by RIA for PGE2. Assays were performed multiple times in triplicate. Inhibition curves were constructed and IC50 values were determined using Prism® 3.0 (GraphPad, San Diego).

Data set [2] addresses T3, COX-3 (Canis lupus familiaris, UniProt Q8HZR1, E597Q).
T3 construct: V5-His (vector name only); expressed in transfected cells; host or cells: Sf9 insect cells infected with recombinant baculovirus (pBlueBac 4.5/V5-His)
T3 sequence (Q8HZR1 1-633 isoform Q8HZR1-2 E627Q): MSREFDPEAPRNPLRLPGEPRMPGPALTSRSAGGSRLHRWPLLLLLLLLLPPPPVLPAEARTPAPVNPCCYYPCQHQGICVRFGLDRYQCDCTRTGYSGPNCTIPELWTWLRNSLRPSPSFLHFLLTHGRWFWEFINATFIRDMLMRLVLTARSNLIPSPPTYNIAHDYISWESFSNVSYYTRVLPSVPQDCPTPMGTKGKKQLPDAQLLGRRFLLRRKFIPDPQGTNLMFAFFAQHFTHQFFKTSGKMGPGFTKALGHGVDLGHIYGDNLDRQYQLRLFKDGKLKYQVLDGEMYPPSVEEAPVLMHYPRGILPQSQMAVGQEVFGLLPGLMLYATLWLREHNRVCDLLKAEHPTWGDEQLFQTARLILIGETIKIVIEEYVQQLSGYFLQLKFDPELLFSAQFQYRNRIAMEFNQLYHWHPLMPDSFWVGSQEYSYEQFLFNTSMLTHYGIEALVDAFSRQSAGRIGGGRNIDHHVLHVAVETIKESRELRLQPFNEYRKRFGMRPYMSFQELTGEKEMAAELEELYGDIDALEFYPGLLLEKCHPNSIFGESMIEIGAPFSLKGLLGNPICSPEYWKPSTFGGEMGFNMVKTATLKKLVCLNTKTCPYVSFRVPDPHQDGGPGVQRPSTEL
Kind of data set: COX activity (PGE2 formation by RIA) in insect cells expressing COX-3, drug inhibition. It counts as cell-based, canine. The procedure: as §1, §2

Data set [3] deals with COX-3. Kind of data set: COX activity of intact tunicamycin-treated insect cells by RIA. It counts as cell-based, canine. To be noted: 10 μg/ml, harvested after 48 hr. The procedure: Tunicamycin was added to a final concentration of 10 μg/ml to insect cells 1 hr after infection with baculovirus constructs. The cells were cultured and harvested after 48 hr. COX activity of intact cells was determined by radioimmunoassay (RIA) (Salmon, 1978). COX activity in intact Tu-treated cells was compared with activity in untreated cells infected with the appropriate virus (MOI=3).

The mark [4] stands for this setting: 30 μM arachidonic acid, insect cells, PGE2 by RIA, read-out: IC50, μM COX-2.
[5] abbreviates: 30 μM arachidonic acid, insect cells, PGE2 by RIA, read-out: IC50, μM COX-1.
The mark [6] stands for this setting: substrate conditions of 30 μM arachidonic acid, read-out: IC50 value for COX-3.
[7] abbreviates: 30 μM arachidonic acid, insect cells, PGE2 by RIA, read-out: IC50, μM COX-3.

Read-outs that look alike come from different tables or passages of the source.

As to `CNc1c(C)n(C)n(-c2ccccc2)c1=O` [4-methylaminoantipyrine], in data set [1], the “concentration reached in plasma” value is 104 µM and the “concentration reached in the central nervous system” value was 86 µM.
Regarding `Cc1c(N(C)C)c(=O)n(-c2ccccc2)n1C` [Aminopyrine, 4-dimethylaminoantipyrine], the results for the concentration for half-maximal inhibition (IC50) at mouse COX-2 (setting [4]), on mouse COX-1 (setting [5]) and at COX-3 [2] (setting [6]) were above 1000 µM, above 1000 µM and 688 µM, respectively.
For `Cc1cc(=O)n(-c2ccccc2)n1C` [Antipyrine], the IC50 at mouse COX-2 was above 1000 µM; at mouse COX-1, above 1000 µM; on COX-3 [2] (IC50, μM COX-3, 30 mM arachidonic acid, insect cells, PGE2 by RIA), 863 µM; against COX-3 [2] (IC50 value for COX-3, substrate conditions of 30 μM arachidonic acid), 862 µM.
Take `CC(=O)Oc1ccccc1C(=O)O` [Aspirin]: the IC50 on COX-3 [2] (setting [7]) is 3.1 µM.
On to `Cn1c(=O)c2c(ncn2C)n(C)c1=O` [Caffeine], for which the IC50 on mouse COX-2 (setting [4]), at mouse COX-1 (setting [5]) and at COX-3 [2] (setting [7]) was above 1000 µM each time.
Take `O=C(O)Cc1ccccc1Nc1c(Cl)cccc1Cl` [Diclofenac]: inhibition on mouse COX-1 was half-maximal at 0.035 µM (IC50).
For `Cc1c(N(C)CS(=O)(=O)[O-])c(=O)n(-c2ccccc2)n1C.[Na+]` [Dipyrone], the IC50 on mouse COX-2 (setting [4]) was above 1000 µM; on mouse COX-1 (setting [5]), 350 µM; at COX-3 [2] (setting [6]) it was 52 µM. Also, the “inhibition of COX-2” value against mouse COX-2 (below 1 mM) was “No detectable inhibition”. Further, the “concentration inhibiting COX-1, fold higher than COX-3 IC50” value on mouse COX-1 (30 μM arachidonic acid (FIG. 13, panel D)) was found to be 6.6 fold.
With `CCOc1ccc(NC(C)=O)cc1` [Phenacetin], the results for the IC50 at mouse COX-2 (setting [4]), on mouse COX-1 (setting [5]) and at COX-3 [2] (setting [6]) were above 1000 µM, above 1000 µM and 102 µM, respectively.
In the case of `O=C1CCC(N2C(=O)c3ccccc3C2=O)C(=O)N1` (stereo not drawn) [Thalidomide], the IC50 on mouse COX-2 (setting [4]), on mouse COX-1 (setting [5]) and at COX-3 [2] (setting [7]) was above 1000 µM each time.
As for `O=C([O-])c1ccccc1O.[Na+]` [sodium salicylate], the “sensitivity of COX-3 to the drug compared with COX-1 or COX-2” value on COX-3 [2] was “less sensitive”.
For the compound tunicamycin, in the data set on COX-3 [3], the “COX activity in cells treated with tunicamycin” value is given as “significantly decreased or abolished”.
